In patent publication US8541379B2 (Ajinomoto Co., Inc., priority 2009, dated 2013):
Marks after values point to notes of the source that are not given here.

Columns and labels:
[1] = Paired comparison sensory test, solution of tomato catsup; type: in vivo, human; conditions: 33.3% tomato catsup solution, N=9, significant level of 1%
Description: More specifically, the sensory evaluation test was carried out according to the following procedures: Commercially available tomato catsup for popular use was dispersed in hot water in a concentration of 33.3% by mass to thus form a solution of tomato catsup. This solution was admixed with γ-Glu-Nva, γ-Glu-Cys-Gly, or γ-Glu-Abu as a test compound. According to the paired comparison test method (pair test), the panelists were requested to comparatively evaluate the following three samples and to judge whether “any of them was preferred or favorable since it could enhance the flavor and taste of the solution of tomato catsup without changing the balance between them”: (1) 0.02% by mass of γ-Glu-Cys-Gly whose kokumi-imparting activity was identical to 0.0004% by mass of γ-Glu-Nva; (2) 0.0004% by mass of γ-Glu-Abu, the amount of which was identical to 0.0004% by mass of γ-Glu-Nva; (3) 0.003% by mass of γ-Glu-Abu whose kokumi-imparting activity was identical to that observed for 0.0004% by mass of γ-Glu-Nva. The panelists used in this test were persons who had been engaged in the development of seasonings for foods over not less than one year of the cumulative time period and who could judge that the difference in the titer between γ-Glu-Cys-Gly and γ-Glu-Val-Gly added to a solution having umami/salty taste was about 10 times (while confirming the ability of these persons at regular intervals). The evaluation was carried out at N (the number of panelists used)=9.
However, the results observed for tomato catsup are shown in Table 6 as the typical example thereof.

[2] = biological target: T1, human CaSR (Homo sapiens, UniProt P41180, E1011Q); assay: Evaluation of CaSR agonist activity (Ca2+ fluorescence, hCaSR-transfected 293E cells); type: cell-based
T1 construct: expressed in transfected cells; host or cells: 293E cells (EBNA1-expressing HEK293, ATCC CRL-10852), transient transfection with Fugene6
T1 sequence (P41180 20-1078 E1011Q): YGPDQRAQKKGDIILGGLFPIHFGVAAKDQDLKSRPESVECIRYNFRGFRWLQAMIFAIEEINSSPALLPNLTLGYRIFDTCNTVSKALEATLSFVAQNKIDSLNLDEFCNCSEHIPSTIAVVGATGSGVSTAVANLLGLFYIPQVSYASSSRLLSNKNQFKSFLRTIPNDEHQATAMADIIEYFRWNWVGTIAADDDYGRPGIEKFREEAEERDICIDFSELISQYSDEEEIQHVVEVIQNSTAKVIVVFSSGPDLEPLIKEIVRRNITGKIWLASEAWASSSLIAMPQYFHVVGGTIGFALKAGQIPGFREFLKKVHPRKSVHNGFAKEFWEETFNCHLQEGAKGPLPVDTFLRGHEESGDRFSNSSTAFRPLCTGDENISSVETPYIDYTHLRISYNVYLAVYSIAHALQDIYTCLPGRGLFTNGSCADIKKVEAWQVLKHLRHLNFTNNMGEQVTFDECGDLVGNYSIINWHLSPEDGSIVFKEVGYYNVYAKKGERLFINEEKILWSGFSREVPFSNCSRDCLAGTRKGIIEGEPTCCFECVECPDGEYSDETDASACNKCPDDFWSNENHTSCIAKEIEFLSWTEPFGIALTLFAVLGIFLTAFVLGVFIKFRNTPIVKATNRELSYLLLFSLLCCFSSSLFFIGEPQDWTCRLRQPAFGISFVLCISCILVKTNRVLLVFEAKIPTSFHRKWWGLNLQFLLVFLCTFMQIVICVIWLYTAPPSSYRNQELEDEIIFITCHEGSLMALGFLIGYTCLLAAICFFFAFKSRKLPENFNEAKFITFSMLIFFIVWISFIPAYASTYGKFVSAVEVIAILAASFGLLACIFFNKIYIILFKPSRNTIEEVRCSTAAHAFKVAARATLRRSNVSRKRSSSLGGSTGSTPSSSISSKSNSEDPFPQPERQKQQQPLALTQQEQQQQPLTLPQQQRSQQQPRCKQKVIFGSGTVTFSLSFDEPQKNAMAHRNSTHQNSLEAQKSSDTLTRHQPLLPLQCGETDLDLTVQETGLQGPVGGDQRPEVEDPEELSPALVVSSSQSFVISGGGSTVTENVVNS
Description: 293E Cells (EBNA1-expresion HEK293 cells, ATCC No. CRL-10852) were cultivated in DMEN/Ham's-F12 (3.15/mL glucose-containing Dulbecco's modified Eagle medium, available from Nakaraitesk Company) supplemented with 10% fetal calf serum, in the presence of 200 μg/mL of G418 (available from Genetisin). The cultured cells were inoculated in F25 flask at a density of 3×10^6 cells/10 mL, the flask was allowed to stand over 24 hours in a CO2 incubator (5% CO2, 37° C.), and then the human CaSR-expression plasmid hCaSR/pcDNA3.1 was transformed or transfected with a reagent for transfection Fugene6 (available from Roche Company). The transfected plasmid was maintained in a CO2 incubator for 6 to 7 hours, then the cells were recovered using a 10% fetal calf serum-containing DMEM/Ham's-F12 and the cells were inoculated in each well of a poly-D-lysine coat 96-well plate (BD-Biocoat) at a density of 70,000 cells/well.
To each well of the 96-well plate, each test compound was dissolved in a 0.1% BSA-containing Assay Buffer in an amount of 50 μl/well, and then any change of the intensity of fluorescence was monitored over 3 minutes using FLEX Station (available from Molecular Devices Company).
Method for the Determination of EC50:
The difference (RFU (Max-Min)) between the maximum and minimum fluorescent intensities observed for each well before and after the addition of each specific test compound was determined by the automatic calculation using FLEX Station. The activity rate was calculated while the RFU (Max-Min) value observed when adding the compound at the maximum concentration was defined to be 100% and the RFU (Max-Min) value observed when using the 0.1% BSA-containing Assay Buffer free of any test compound was defined to be 0%, followed by subjecting the resulting data to the curve-fitting procedures using the spreadsheet software Xfit or Graph-Pad-Prism to thus determine the EC50 which was the concentration of the compound at the activity rate of 50%.
In addition, the same EC50-determining procedures used above were repeated except for using other dipeptides as Comparative Examples.

CCC[C@H](NC(=O)CC[C@H](N)C(=O)O)C(=O)O [γ-Glu-Nva, γ-L-glutamyl-L-norvaline]
No. of Panelists who judged γ-Glu-Nva rather preferred ([1]; 0.0004 wt % γ-Glu-Nva vs 0.0004 wt % γ-Glu-Abu): 9/9** | No. of Panelists who judged γ-Glu-Nva rather preferred ([1]; 0.0004 wt % γ-Glu-Nva vs 0.003 wt % γ-Glu-Abu): 9/9** | No. of Panelists who judged γ-Glu-Nva rather preferred ([1]; 0.0004 wt % γ-Glu-Nva vs 0.02 wt % γ-Glu-Cys-Gly): 9/9** | EC50 ([2]; 293E cells transfected with hCaSR/pcDNA3.1, Calcium 4 fluorescence, FLEX Station): 120 nM | CaSR agonist activity ([2]; compared with other dipeptides): strong CaSR agonist activity comparable to that observed for γ-Glu-Cys
